From patent publication US5025036A, “Catechol carboxylic acids” (Hoffmann-La Roche Inc., priority 1989, dated 1991)

Tests used:
[1] = system: cardiac lipid peroxidation; test: In vitro testing of antiperoxidative agents (cardiac lipid peroxidation); format: biochemical; conditions: rat cardiac liposomes, 60 minutes, 37° C., pH 7.4; read-out: Inhib. of Lipid Peroxidation IC50
Experimental: The test system employs hypoxanthine-xanthine oxidase (XO)-Fe^3+. ADP as the free radical generator and purified, native rat-heart membrane phosphoglyceride in Hepes-KCl buffer, pH 7.4, as the substrate. Inhibition of superoxide-dependent, iron-promoted lipid peroxidation in the linear reaction phase (after 1 hour of reaction) is measured as the net formation of thiobarbituric acid (TBA)-reactive material. In this system, the TBA-reactive material, isolated by HPLC, is exclusively (>95%) malondialdehyde (MDA), a fragmentation end-product arising from fatty acyl hydroperoxides and cyclic endoperoxides.
Conscious male Sprague-Dawley rats (~275 g) maintained on a normal rodent diet were decapitated. The hearts were rapidly removed and perfused via the aorta with ice-cold 10 mM Hepes buffer, pH 7.4. The aorta and atria were removed, and the ventricular tissue was blotted and weighed (wet weight). The hearts were minced on ice with scissors and finally homogenized (100 mg tissue/ml ice-cold buffer) for 15 seconds (3×5 seconds) with a Tekmar Tissumizer at "maximal" setting. The homogenate was filtered through 4-ply cheesecloth, and homogenate lipids were extracted and purified by a modified Bligh-Dyer procedure (M. D. Marshall and M. Kates, Biochem. Biophys. Acta 260, 558 (1972). The cardiac lipids were stored in CHCl3 under nitrogen at -20° C.
Liposomes were prepared from extracted and purified, native rat heart cardiac lipid and were used as substrate for free-radical attack. Cardiac lipid (in CHCl3) was placed in a glass flask and evaporated to dryness under nitrogen at room temperature; the flask was gently rotated during evaporation to yield a thin, dry lipid film. The lipid was taken up in 10 mM Hepes-0.145M CKl, pH 7.4, and was resuspended by indirect anaerobic sonication for 15 minutes at room temperature. The liposome suspension was used immediately.
A chelate was formed in Hepes-KCl buffer between Fe^3+ (1.0 mM FeCl3, final concentration) and ADP (10 mM, final concentration) at pH 7.4 with stirring at room temperature. Chelation was allowed to proceed for 90 minutes prior to use. The chelate was prepared fresh for each days experiments to ensure iron solubility, effective chelation, and valence state.
Malondialdehyde (MDA) equivalents were measured as thiobarbituric acid (TBA)-reactive material by the following modification of published methods. The reaction mixture, prepared fresh daily, contained water:BHT ([…] BHT in absolute ethanol):TBA (1.5% TBA in 0.2M Tris, pH 7.0) in the volume ratio 1:1:5. To each 1.0 ml of peroxidation reaction assayed (see below), 0.35 ml reaction mixture was added. After thorough mixing, the tubes were incubated in an 80° C. shaking water bath for 30 minutes. After this time, the tubes were plunged into an ice water bath, and the reaction was immediately stopped with 0.5 ml ice-cold 91% TCA followed by 2.0 ml CHCl3. After centrifugation for 30 minutes at 2000 rpm in a Sorval HL-8 rotor (4° C.), the absorbance of the washed, pink upper phase was read at 532 nm. A standard curve (0.8-40.0 nmol MDA) was run with every assay. For each curve, MDA was freshly prepared by acidification of 1,1,3,3-tetraethoxypropane with 75% TCA-2.3N HCl (0.15 ml acid mixture with 1.0 ml suitably diluted tetraethoxypropane). Computer-assisted regression analysis of the standard curve was used to quantify the molar amounts of MDA equivalents in the experimental samples.
Cardiac liposomes were subjected to superoxide-dependent, iron-promoted peroxidation in glass vessels to avoid the well-known antioxidant effects of many common polymerizing agents used to fabricate plastic labware. Screening was performed in triplicate in glass 12×75 mm tubes at a final reaction volume of 1.0 ml and a reaction time of 60 minutes. […]

[2] = Antibiotic-Induced Colitis in Hamsters, In Vivo; design: species or system male Syrian hamsters (LUG); conditions: >1.0 = therapy prolongs survival, ** p < 0.01
Experimental: Male Syrian hamsters (LUG), weighing 80 to 120 g were each given a single dose of 175 mg/kg of clindamycin-phosphate or of clindamycin-hydrochlorideintraperitoneally, to induce colitis. Approximately seven hours after injection, the animals were given the test compound orally or intraperitoneally and the therapy was continued twice a day for a period of four more days. For oral administration, the […] was suspended in water or dissolved in dimethylsulfoxide and delivered to the animals by gavage using an oral intubating needle. The effect of the therapy was measured by use of the Hazard Ratio, which is the ratio of the mortality of the animals treated with the test inhibitor compound contained in a vehicle to the mortality of the animals treated with the vehicle containing none of the test inhibitor compound. The mortality was determined for the test inhibitor compound-treated groups and for the vehicle-treated groups, respectively, twice daily, and was evaluated by comparing the survival curves of each group. The Kaplan-Meier estimate of the survival curve was calculated for each group and the Mantel-Cox (logrank) test was used to compare the survival curve of each test inhibitor compound-treated (therapy) group to that of the corresponding vehicle control group. […] (See, J. G. Bartlett et al. Amer. J. Vet. Res. 39: 1525-1530 (1978)).

| Compound | IC50 [1] [nM] | Hamster Colitis Model Hazard Ratio ([2]; 10 mg/kg p.o) | Hamster Colitis Model Hazard Ratio ([2]; 100 mg/kg p.o) |
| --- | --- | --- | --- |
| CCCc1c(OCCCCc2cccc(O)c2O)ccc(C(C)=O)c1O [1-[2-Hydroxy-4-[4-(2,3-dihydroxyphenyl)butoxy]-3-propylphenyl]ethanone] | > 1000 |  |  |
| CCCc1c(OCCCCc2cccc(O)c2O)ccc(C(=O)O)c1O [4-[4-(2,3-dihydroxyphenyl)butoxy]-2-hydroxy-3-propylbenzoic acid] | 500 | 1.35 | 0.1 |
| O=C(O)c1ccc(OCCCCCCc2cccc(O)c2O)cc1O [4-[6-(2,3-Dihydroxyphenyl)hexyloxy]-2-hydroxybenzoic acid] | > 1000 |  |  |
| O=C(O)c1ccc(OCCCCCCc2cccc(O)c2O)cc1 [4-[6-(2,3-Dihydroxyphenyl)hexyloxy]benzoic acid] | > 1000 |  |  |
| CCCc1c(OCCCCCCc2ccc(C(C)C)c(O)c2O)ccc(C(=O)O)c1O [4-[6-[2,3-dihydroxy-4-(1-methylethyl)phenyl]hexyloxy]-2-hydroxy-3-propylbenzoic acid] | 700 |  |  |

Further molecules by falling IC50 [1], results first:

| IC50 [1] [nM] | Compound | Hamster Colitis Model Hazard Ratio ([2]; 10 mg/kg p.o) | Hamster Colitis Model Hazard Ratio ([2]; 100 mg/kg p.o) |
| --- | --- | --- | --- |
| 700 | CCCc1c(OCCCCCCc2ccc(C(C)C)c(O)c2O)ccc(C(C)=O)c1O [1-[2-hydroxy-4 [6-[2,3 dihydroxy-4-(1-methylethyl)phenyl]hexyloxy]-3 propylphenyl]ethanone] |  |  |
| 700 | CCCc1c(OCCCCCCc2cccc(O)c2O)ccc(C(C)=O)c1O [1-[2-hydroxy-4-[6-(2,3-dihydroxyphenyl)hexyloxy]-3-propylphenyl]ethanone] |  |  |
| 600 | CCCc1c(OCCCCCCc2ccc(O)c(O)c2)ccc(C(=O)O)c1O [4-[6-(3,4-dihydroxyphenyl)hexyloxy]-2-hydroxy-3-propylbenzoic acid] |  |  |
| 400 | CCCc1c(OCCCCCCCCCCc2cccc(O)c2O)ccc(C(=O)O)c1O [4-[10-(2,3-dihydroxyphenyl)decyloxy]-2-hydroxy-3-propylbenzoic acid] |  |  |
| 300 | CCCc1c(OCCCCCCc2cccc(O)c2O)ccc(C(=O)O)c1O [4-[6-(2,3-Dihydroxyphenyl)hexyloxy]-2-hydroxy-3-propylbenzoic acid] | 2.26 | 4.22 |
| 300 | CCCc1c(OCCCCCCCCc2cccc(O)c2O)ccc(C(=O)O)c1O [4-[8-(2,3-dihydroxyphenyl)octyloxy]-2-hydroxy-3-propylbenzoic acid] |  |  |
